# Reference: US11529323B2 (priority 2017, dated 2022)
# How the values were obtained:
# Type in all cases: in vivo, mouse
# [1] = system: C-26 colon adenocarcinoma cachexia model; assay: AR-42 dose-response study in the C-26 cachexia model
# Procedure: These studies were performed as previously described (Tseng Y C, et al. J Natl Cancer Inst. 2015 107(12):djv274) with modifications. Tumors were established in the right flank by subcutaneous injection of C-26 cells (0.5×10^6 cells in 0.1 mL). […] TFM-4AS-1 (a potent experimental SARM), dihydrotestosterone (DHT) and vehicles were administered by subcutaneous injection.
# Male CD2F1 mice were stratified by body weight and then randomly assigned into 5 groups of 6 animals each. C-26 tumors were established in four of the groups, while those in the fifth group, serving as tumor-free controls, were injected with sterile saline. Six days later, animals with palpable tumors were treated with AR-42 once daily at 10 (n=5) and 20 mg/kg (n=6), and every other day at 50 mg/kg (n=5), or vehicle control (n=4) for 13 days. Upon sacrifice on study day 18, when the majority of tumor-bearing control mice met euthanasia criteria, the left gastrocnemius muscle was excised and flash frozen in liquid nitrogen and stored at −80° C. for subsequent analyses. Carcass weights were corrected for tumor weight by assuming a tumor density equivalent to water (1 g/cm^3).
# phospho-STAT3 (pSTAT3) = assay: Phospho-STAT3/STAT3 ELISA in C-26 tumors, Study 2; conditions: AR-42 10 mg/kg
# Text: FIG. 4A is a table showing multiplex analysis of diverse serum cytokines in terminal samples from Study 2. Presented cytokines are limited to those showing significant differences from tumor-bearing vehicle-treated controls. G-CSF: granulocyte colony-stimulating factor, GM-CSF: granulocyte macrophage colony-stimulating factor, IL-6: interleukin-6, IL-17: interleukin-17, IP-10: interferon gamma-induced protein 10, KC: chemokine (C-X-C motif) ligand 1, LIF: leukemia inhibitory factor, M-CSF: macrophage colony-stimulating factor. FIG. 4B is a bar graph showin ELISA analysis of serum IL-6 levels in terminal samples from Study 2. ND, not detected. FIG. 4C is a plot showing individual animal serum IL-6 values as determined in A plotted against tumor-corrected terminal bodyweights from Study 2 (Pearson's Correlation). […] FIG. 4E is a plot showing spleen weights normalized to tumor-corrected terminal body weights of mice from Study 2. FIG. 4F is a bar graph showing ELISA analysis of STAT3 within C-26 tumors from Study 2. […]
# Phospho-STAT3/STAT3 Analysis: Expression of phospho-STAT3 and total STAT3 in C-26 tumor tissues was measured using commercial sandwich ELISA kits according to the manufacturer's instructions (PathScan® Phospho-Stat3, #7300, and Total Stat3, #7305, Cell Signaling Technology, Danvers, Mass.).
# serum cytokines = assay: Serum cytokine panel, multiplex analysis, Study 2, tumor-free mice; conditions: GTx-024 15 mg/kg p.o. qd, Day 17 sacrifice, mean ± SD
# Procedure: This confirmatory study was performed exactly as Study 1 with expanded animal numbers. Tumor-free control groups were maintained at 6 animals each, whereas 10 animals were included in each of the tumor-bearing groups. […] Grip strength was measured on study days 0 (baseline) and 16. Due to rapid model progression, this study was terminated after only 12 days of treatment.
# Serum cytokine panel analyses were performed by a commercial vendor (Eve Technologies, Calgary, Canada) as previously described. Serum interleukin-6 (IL-6) was measured using a commercial ELISA kit (R&D Systems, Minneapolis, Minn., USA) according to the manufacturer's instructions.
structure (smiles),measurement,setting,value
"CC(C)[C@H](C(=O)Nc1ccc(C(=O)NO)cc1)c1ccccc1 [AR-42, (S)—N-hydroxy-4-(3-methyl-2-phenylbutanamido)benzamide]",lowest efficacious dose,"[1]; daily oral, C-26 model",10 mg/kg
same,tumor-corrected body weight,"[1]; thirteen daily oral doses of 20 or 10 mg/kg, similar to six 50 mg/kg doses q2d, C-26 tumor-bearing mice, Day 18",reversed C-26 tumor-mediated reductions in tumor-corrected body weight
same,pSTAT3 signaling within the C-26 tumors,phospho-STAT3 (pSTAT3),did not significantly suppress pSTAT3 signaling within the C-26 tumors
"C[C@](O)(COc1ccc(C#N)cc1)C(=O)Nc1ccc(C#N)c(C(F)(F)F)c1 [GTx-024, (2S)-3-(4-cyanophenoxy)-N-(4-cyano-3-(trifluoromethyl)phenyl)-2-hydroxy-2-methylpropanamide]","Eotaxin, serum",serum cytokines,669.53 ± 100.70 pg/mL
same,"G-CSF, serum",serum cytokines,338.39 ± 71.70 pg/mL
same,"GM-CSF, serum",serum cytokines,13.27 ± 4.62 pg/mL
same,"IFNg, serum",serum cytokines,5.93 ± 2.14 pg/mL
same,"IL12 (p40), serum",serum cytokines,22.48 ± 13.42 pg/mL
same,"IL-1a, serum",serum cytokines,60.41 ± 56.12 pg/mL
same,"IL-1b, serum",serum cytokines,14.65 ± 5.66 pg/mL
same,"IL-2, serum",serum cytokines,15.43 ± 6.56 pg/mL
same,"IL-3, serum",serum cytokines,1.10 ± 0.63 pg/mL
same,"IL-4, serum",serum cytokines,0.48 ± 0.37 pg/mL
same,"IL-5, serum",serum cytokines,5.71 ± 3.26 pg/mL
same,"IL-6, serum",serum cytokines,2.45 ± 1.31 pg/mL
same,"IL-7, serum",serum cytokines,11.51 ± 11.06 pg/mL
same,"IL-9, serum",serum cytokines,8.02 ± 6.78 pg/mL
same,"IL-10, serum",serum cytokines,2.38 ± 1.13 pg/mL
same,"IL-12 (p70), serum",serum cytokines,10.83 ± 6.12 pg/mL
same,"IL-13, serum",serum cytokines,29.87 ± 12.81 pg/mL
same,"IL-15, serum",serum cytokines,131.33 ± 70.97 pg/mL
same,"IL-17, serum",serum cytokines,5.01 ± 1.18 pg/mL
same,"IP-10, serum",serum cytokines,145.68 ± 48.83 pg/mL
same,"KC, serum",serum cytokines,90.02 ± 17.69 pg/mL
same,"LIF, serum",serum cytokines,2.50 ± 2.34 pg/mL
same,"LIX, serum",serum cytokines,1316.67 ± 1662.66 pg/mL
same,"M-CSF, serum",serum cytokines,27.23 ± 10.09 pg/mL
same,"MCP-1, serum",serum cytokines,54.54 ± 7.47 pg/mL
same,"MIG, serum",serum cytokines,89.29 ± 41.83 pg/mL
same,"MIP-1a, serum",serum cytokines,75.46 ± 29.41 pg/mL
same,"MIP-1b, serum",serum cytokines,87.69 ± 10.61 pg/mL
same,"MIP-2, serum",serum cytokines,136.75 ± 47.91 pg/mL
same,"RANTES, serum",serum cytokines,20.84 ± 10.38 pg/mL
same,"TNFa, serum",serum cytokines,12.15 ± 4.24 pg/mL
same,"VEGF, serum",serum cytokines,0.87 ± 0.32 pg/mL
